Reference: a compilation of properties of binary mixtures (doi:10.1016/j.jiec.2013.02.010)

Assay: xn = mol fraction of the nth substance listed
Conditions: 101 kPa

CCCC[n+]1ccn(C)c1.[Cl-] + CC#N
Conditions | electrical conductivity [S/m] | viscosity [mPa·s]
293.15 K, x2 = 0.5028 | – | 111
293.15 K, x2 = 0.5548 | – | 60.5
293.15 K, x2 = 0.6007 | – | 38.5
293.15 K, x2 = 0.7003 | – | 11.9
293.15 K, x2 = 0.8 | – | 3.9
293.15 K, x2 = 0.9002 | – | 1.17
293.15 K, x2 = 0.9499 | – | 0.69
298.15 K, x2 = 0.502 | 0.29 | 76
298.15 K, x2 = 0.5483 | 0.4 | 53.6
298.15 K, x2 = 0.6038 | 0.578 | 28.4
298.15 K, x2 = 0.7021 | 1.03 | 10
298.15 K, x2 = 0.9002 | 1.9 | 1.12
298.15 K, x2 = 0.9499 | 1.7 | 0.63
298.15 K, x2 = 0.975 | 1.3 | 0.46
303.15 K, x2 = 0.5065 | – | 63.1
303.15 K, x2 = 0.5524 | – | 40.2
303.15 K, x2 = 0.6025 | – | 25.5
303.15 K, x2 = 0.7003 | – | 9.3
303.15 K, x2 = 0.8007 | – | 3.4
303.15 K, x2 = 0.9002 | – | 1.06
303.15 K, x2 = 0.9499 | – | 0.57
308.15 K, x2 = 0.5028 | – | 55.4
308.15 K, x2 = 0.5548 | – | 33.3
308.15 K, x2 = 0.6007 | – | 22
308.15 K, x2 = 0.7003 | – | 8.5
308.15 K, x2 = 0.8 | – | 3.04
308.15 K, x2 = 0.9002 | – | 1.02
308.15 K, x2 = 0.9499 | – | 0.53

CC#N + CCCC[n+]1ccn(C)c1.[Cl-]
x1 = 1
Conditions | viscosity [mPa·s]
293.15 K | 0.36
298.15 K | 0.35
303.15 K | 0.32

CCO + CCCC[n+]1ccn(C)c1.[Cl-]
x1 = 1
Conditions | viscosity [mPa·s]
293.15 K | 1.19
298.15 K | 1.08
308.15 K | 0.89

CN(C)C=O + CCCC[n+]1ccn(C)c1.[Cl-]
x1 = 1
Conditions | viscosity [mPa·s]
293.15 K | 0.86
298.15 K | 0.8
303.15 K | 0.78
308.15 K | 0.73

CO + CCCC[n+]1ccn(C)c1.[Cl-]
x1 = 1
Conditions | viscosity [mPa·s]
293.15 K | 0.61
298.15 K | 0.55
303.15 K | 0.51

O + CCCC[n+]1ccn(C)c1.[Cl-]
x1 = 1
Conditions | viscosity [mPa·s]
293.15 K | 1.01
298.15 K | 0.89
303.15 K | 0.8
308.15 K | 0.72

CCCC[n+]1ccn(C)c1.[Cl-] + CCO
Conditions | electrical conductivity, 298.15 K [S/m] | viscosity, 293.15 K [mPa·s] | viscosity, 298.15 K [mPa·s] | viscosity, 303.15 K [mPa·s] | viscosity, 308.15 K [mPa·s]
x2 = 0.4991 | 0.326 | 75 | 61.4 | – | 38.3
x2 = 0.5533 | 0.483 | 47.9 | 37.5 | 31.1 | 25.6
x2 = 0.6011 | 0.648 | 30.6 | 23.8 | – | 17
x2 = 0.7003 | – | 12.1 | – | 9.2 | 8.2
x2 = 0.8002 | – | 5.23 | – | 4.25 | 3.84
x2 = 0.9 | 1.38 | 2.46 | 2.24 | 2.06 | 1.92
x2 = 0.9501 | 0.927 | – | 1.62 | – | 1.35
x2 = 0.975 | 0.52 | – | 1.29 | – | –

CCCC[n+]1ccn(C)c1.[Cl-] + CN(C)C=O
Conditions | electrical conductivity [S/m] | viscosity [mPa·s]
293.15 K, x2 = 0.5025 | – | 77
293.15 K, x2 = 0.5565 | – | 49.1
293.15 K, x2 = 0.6003 | – | 33.9
293.15 K, x2 = 0.6996 | – | 16.9
293.15 K, x2 = 0.8014 | – | 5.1
293.15 K, x2 = 0.95 | – | 1.32
298.15 K, x2 = 0.501 | 0.218 | 64
298.15 K, x2 = 0.6134 | 0.439 | 24
298.15 K, x2 = 0.6994 | 0.592 | 11.4
298.15 K, x2 = 0.8017 | 0.857 | 4.44
298.15 K, x2 = 0.9 | 0.922 | 1.88
298.15 K, x2 = 0.9502 | 0.766 | 1.21
303.15 K, x2 = 0.552 | – | 34.5
303.15 K, x2 = 0.7005 | – | 9.5
303.15 K, x2 = 0.9 | – | 1.73
308.15 K, x2 = 0.5007 | – | 39.9
308.15 K, x2 = 0.5564 | – | 25.5
308.15 K, x2 = 0.6001 | – | 17.5
308.15 K, x2 = 0.7 | – | 7.8
308.15 K, x2 = 0.95 | – | 1.04

CCCC[n+]1ccn(C)c1.[Cl-] + CO
Conditions | electrical conductivity [S/m] | viscosity [mPa·s]
293.15 K, x2 = 0.6026 | – | 23.2
293.15 K, x2 = 0.7002 | – | 8.4
293.15 K, x2 = 0.8008 | – | 3.41
293.15 K, x2 = 0.8999 | – | 1.63
293.15 K, x2 = 0.95 | – | 0.95
298.15 K, x2 = 0.5213 | 0.632 | 37.6
298.15 K, x2 = 0.5458 | 0.777 | 32.5
298.15 K, x2 = 0.5925 | 1.08 | 20.4
298.15 K, x2 = 0.7996 | 3.46 | 3.25
298.15 K, x2 = 0.9007 | 4.08 | 1.38
298.15 K, x2 = 0.95 | 3.32 | 0.88
298.15 K, x2 = 0.975 | 2.24 | 0.68
303.15 K, x2 = 0.5173 | – | 36.4
303.15 K, x2 = 0.6044 | – | 16
303.15 K, x2 = 0.7993 | – | 2.86
303.15 K, x2 = 0.8999 | – | 1.25
303.15 K, x2 = 0.95 | – | 0.85
308.15 K, x2 = 0.5001 | – | 34.5
308.15 K, x2 = 0.5458 | – | 23.7
308.15 K, x2 = 0.6026 | – | 14.9
308.15 K, x2 = 0.7001 | – | 6.6
308.15 K, x2 = 0.8008 | – | 2.76

CCCC[n+]1ccn(C)c1.[Cl-] + O
Conditions | electrical conductivity, 298.15 K [S/m] | viscosity, 293.15 K [mPa·s] | viscosity, 298.15 K [mPa·s] | viscosity, 303.15 K [mPa·s] | viscosity, 308.15 K [mPa·s]
x2 = 0.4982 | 0.32 | – | 163 | 118 | –
x2 = 0.5535 | 0.502 | 141 | 105 | 83 | 61.6
x2 = 0.6132 | 0.844 | 86 | 64.5 | 50.4 | 38.7
x2 = 0.7033 | 1.54 | 39.4 | 30.4 | 24.5 | 20
x2 = 0.8034 | – | 15.5 | – | 10.5 | 8.69
x2 = 0.8999 | 5.31 | 5.3 | 4.38 | – | 3.3
x2 = 0.9502 | 5.98 | – | 2.22 | 1.94 | 1.74
x2 = 0.975 | 4.98 | – | 1.52 | – | –
